Data reported in patent US11484032B2, “Compositions for inhibition of insect sensing” (Vanderbilt University, priority 2011, dated 2022).
Like-named read-outs stand apart in the source and are kept apart here.

Key:
Orco (AgORco) = molecular target: T1, Orco (AgORco) (Anopheles gambiae, UniProt Q7QCC7); assay: Fluo-4 Ca2+ imaging, HEK293 cells expressing Orco alone; type: cell-based; details: for Emax: HEK293, read-out: Orco Agonist % value Of VUAA1
T1 construct: expressed in transfected cells
T1 sequence (Q7QCC7 1-478): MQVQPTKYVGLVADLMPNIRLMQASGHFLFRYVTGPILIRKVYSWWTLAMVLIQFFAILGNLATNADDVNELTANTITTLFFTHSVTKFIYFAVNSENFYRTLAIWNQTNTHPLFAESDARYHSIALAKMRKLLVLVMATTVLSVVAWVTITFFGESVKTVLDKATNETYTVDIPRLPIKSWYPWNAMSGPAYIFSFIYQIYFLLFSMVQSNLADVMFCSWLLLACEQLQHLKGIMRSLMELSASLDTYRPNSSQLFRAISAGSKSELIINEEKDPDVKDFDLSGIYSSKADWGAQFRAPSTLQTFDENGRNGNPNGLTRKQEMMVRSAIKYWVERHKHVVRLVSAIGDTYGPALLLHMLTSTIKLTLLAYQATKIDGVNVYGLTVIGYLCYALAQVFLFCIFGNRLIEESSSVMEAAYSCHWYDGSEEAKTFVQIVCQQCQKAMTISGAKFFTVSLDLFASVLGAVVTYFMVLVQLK
From the text: (§1) For transient transfections, ORs were cloned into pCl (Promega) and transfected into Flp-In™ T-REx™293 cell lines (Invitrogen) with Fu GENE6 (Roche). For the creation of stable cell lines, a cell culture expression vector capable of expressing Orco in conjunction with a conventional OR, pcDNA5/FRT/TO (Invitrogen) was modified to create two individual expression cassettes each under the control of a separate CMV/Tet02 promoter and a BGH poly-adenylation signal. Cells (as above) were transfected with the modified pcDNA5 plasmid along with POG44 (a Flp recombinase expression plasmid) to facilitate site-specific recombination. Stable cell lines were selected using Hygromycin B (Invitrogen). Cells were maintained in DMEM (Invitrogen) supplemented with 10% Tetracycline-free FBS (HyClone) and 15 ng/ml Blasticidin. For fluorometric Ca2+ measurements, stable lines expressing ORs of interest were seeded at 20,000 cells/well in black wall, poly-lysine coated 384-well cell culture plates (Greiner) and treated with […] tetracycline (Sigma) overnight to induce OR expression. Cells were dye-loaded with 1.8 uM Fluo-4 AM (Molecular Probes), 2.5 mM Probenecid (Molecular Probes) in assay buffer (20 mM HEPES, IX HBSS) for 45 minutes at 37° C. in 5% CO2 prior to each assay. Ca^2+ mobilization was assayed in an FDSS6000 (Hamamatsu). Baseline readings were taken for 20 s before automated addition of compound previously diluted in DMSO and assay buffer. Ratios were described as Maximum/Minimum response and each response was normalized to the maximum responder.

AgORco+AgOR10 = molecular target: T2, AgORco+AgOR10 (Anopheles gambiae, UniProt Q7QCC7); assay: Fluo-4 Ca2+ imaging, HEK293 cells expressing Orco+AgOR10; type: cell-based; set-up: Orco 10 + Orco Angatonist % Reduction / Orco 10 + Orco Agonist % of control: concentration or dose not given beside the values; details: 10 + Orco; for Orco 10 + Orco Agonist, compared with VUAA1: qualitative, relative to VUAA1
T2 construct: expressed in transfected cells
T2 sequence (Q7QCC7 1-478): T1 sequence (Q7QCC7 1-478)
From the text: as §1
As part of an ongoing, cell based calcium imaging screen for novel small-molecule modulators of AgORs that might disrupt olfactory-driven mosquito behaviors (Rinker et al manuscript in preparation), the inventors identified a number of compounds that activated AgOR10+AgORco-expressing human embryonic kidney (HEK293) cells. One of these compounds, (FIG. 3 A) denoted here as VUAA1, elicited activity consistent with allosteric agonism and was pursued for its novel properties. The identity of VUAA1 was verified using high-resolution mass spectrometry (HRMS) as well as ^1H and ^13C NMR. […] As AgORco was the common element among these functional responses, the inventors postulated that VUAA1 was a potential AgORco agonist.

AgORco+AgOR48 = molecular target: T3, AgORco+AgOR48 (Anopheles gambiae, UniProt Q7QCC7); assay: Ca2+ imaging, HEK cells expressing AgORco+AgOR48; type: cell-based; details: for EC50: read-out: Orco + 48 Agonist EC50; for Orco + 48 Agonist % value Of VUAA1: relative to VUAA1
T3 construct: expressed in transfected cells
T3 sequence (Q7QCC7 1-478): T1 sequence (Q7QCC7 1-478)
From the text: as §1
The ability of VUAA1 and its analogs to agonize representative ORco proteins from dipteran (Anopheles gambiae, AgORco), lepidopteran (Heliothis virescens, HvORco) and hymenopteran (Harpegnathos saltator, HsORco) orders was tested. […] Furthermore, the hierarchy of VUAA series potency was the same, irrespective of whether AgORco was co-expressed with AgOR65 or AgOR48 tuning ORs (FIG. 45). Without wishing to be bound by a particular theory, odorant ligands are thought to activate the complex via interaction with the tuning ORx and thereby affect ORco/ORx channel properties. […] These findings indicate VUAA-class OR co-modulators are viable compounds for further development as broad-spectrum insect control strategies, and VUAA4 can provide an advance in the pharmacological profile of VUAA-based compounds.

AgOrco+AgOR65 = molecular target: T4, AgOrco+AgOR65 (Anopheles gambiae, UniProt Q7QCC7); assay: Ca2+ imaging, HEK cells expressing AgOrco+AgOR65; type: cell-based
T4 construct: expressed in transfected cells
T4 sequence (Q7QCC7 1-478): T1 sequence (Q7QCC7 1-478)
From the text: as §1
For VUAA0, a single methyl from the para position of the aniline ring (compound VUAA0, FIG. 44) in the VUAA1 structure was removed. […] In VUAA0.5, unsaturation was introduced at the para position of the aniline ring (VUAA0.5, FIG. 44). […] In VUAA2, the ethyl group of the aniline ring in VUAA1 was replaced with an isopropyl group (VUAA2, FIG. 44).

[1] = system: An. gambiae early 4th instar larvae; assay: Larval mosquito movement assay (Daniovision-Ethovision); type: in vivo, Anopheles gambiae; details: compared with DMSO controls or VUAA1
Procedure: Next, the agonist activity of the VUAA compound class was tested to establish the involvement of AgORs in mediating larval ortho and klinokinesis in response to a series of semiochemicals using larval-stage An. gambiae mosquitoes. Mosquito larvae are aquatic, thus compounds can be delivered to individual early 4th instar larvae regardless of volatility. The assay currently utilizes 6-well plates and the Daniovision-Ethovision platform (Noldus Inc.) to simultaneously record and analyze 6 larvae, thereby providing modest rates of throughput and a high degree of reproducibility. In these assays, larval movements are automatically quantified over 5-minute period and control larvae consistently move the same number of times in the presence or absence of 0.1% DMSO (p=0.80, n=31) (FIGS. 42-43). Furthermore, the effects of the widely-used synthetic insect repellent N, N-diethyl-meta-toluamide (DEET) was tested and DEET was also observed to increase larval movements at and above a threshold concentration of 5×10^−4M (p=0.013, n=27) (FIGS. 42-43).

[2] = Orco alone, read-out: Orco Agonist EC50
[3] = Orco + 65, read-out: Orco + 65 Agonist EC50
[4] = heteromeric OR channels AgOrco+AgOR65, read-out: EC50

For `CCCc1ccc(NC(=O)CSc2nnc(-c3cccnc3)n2CC)cc1`, the Emax (Orco (AgORco)) was 87%, the EC50 (Orco (AgORco); [2]) was 63 µM and the “Orco 10 + Orco Agonist, compared with VUAA1” value (AgORco+AgOR10; agonist mode) was “<VUAA1”. The EC50 (AgORco+AgOR48; Orco + 48) was 19.8 µM.
For `CCn1c(SCC(=O)Nc2ccc(Br)cc2F)nnc1-c1cccnc1`, the “Orco Agonist value compared with VUAA1” value (Orco (AgORco); Orco alone, qualitative, relative to VUAA1) was “<VUAA1”, the EC50 (Orco (AgORco); [2]) was 192 µM and the “Orco 10 + Orco Agonist, compared with VUAA1” value (AgORco+AgOR10; agonist mode) was “<VUAA1”. For the same molecule, the “Orco 10 + Orco Angatonist % Reduction” value (AgORco+AgOR10; antagonist mode) was 0.00%.
With `CCn1c(SCC(=O)Nc2ccc(C(C)C)cc2)nnc1-c1ccncc1` the Emax (Orco (AgORco)) was 136%, the EC50 (Orco (AgORco); [2]) was 7.4 µM and the EC50 (AgOrco+AgOR65; [3]) was 8.2 µM. The EC50 (AgORco+AgOR48; Orco + 48) was 3.5 µM and the “Orco + 48 Agonist % value Of VUAA1” value (AgORco+AgOR48; Orco + 48) was 112%.
`C=Cc1ccc(NC(=O)CSc2nnc(-c3cccnc3)n2CC)cc1` [drawing 376] was tested, and the Emax (Orco (AgORco)) was 57%, the EC50 (Orco (AgORco); [2]) was 102 µM and the “Orco 10 + Orco Agonist, compared with VUAA1” value (AgORco+AgOR10; agonist mode) was “<VUAA1”. For the same molecule, the EC50 (AgORco+AgOR48; Orco + 48) was 37.4 µM and the “Orco + 48 Agonist % value Of VUAA1” value (AgORco+AgOR48; Orco + 48) was 77%.
`CCCc1ccc(NC(=O)CSc2nnc(-c3ccncc3)n2C2CC2)cc1` was tested, and the “Orco + 48 Agonist % value Of VUAA1” value (AgORco+AgOR48; Orco + 48, agonist) was “<VUAA1” and the “Orco + 48 Agonist EC50 (relative to VUAA1)” value (AgORco+AgOR48; Orco + 48, agonist, stated in words relative to VUAA1) was “<VUAA1”.
`CCc1ccc(NC(=O)CSc2nnc(-c3cccnc3)n2CC)cc1` [drawing 373] was tested, and the Emax (Orco (AgORco)) was 100%, the “Orco 10 + Orco Agonist % of control” value (AgORco+AgOR10; agonist mode) was 101.8% and the EC50 (AgOrco+AgOR65; [3]) was 47 µM. For the same molecule, the “Orco + 65 Agonist % value Of VUAA1” value (AgOrco+AgOR65; Orco + 65, relative to VUAA1) was 100%, the EC50 (AgORco+AgOR48; Orco + 48) was 14 µM and the “Orco + 48 Agonist % value Of VUAA1” value (AgORco+AgOR48; Orco + 48) was 100%.
With `CCn1c(SCC(=O)Nc2ccc(C(C)C)cc2)nnc1-c1cccnc1` [VUAA2, 2-((4-ethyl-5-(pyridin-3-yl)-4H-1,2,4-triazol-3-yl)thio)-N-(4-isopropylphenyl)acetamide] the EC50 (AgOrco+AgOR65; [4]) was 9.2 µM and the “larval behavioral (movement) response” value [1] was “not observed to elicit larval responses greater than VUAA1”.
For `CCn1c(SCC(=O)Nc2ccc(C(C)C)cc2)nnc1-c1cc[nH]n1`, the “Orco Agonist % value Of VUAA1” value (Orco (AgORco); Orco alone, agonist, relative to VUAA1) was “<VUAA1” and the “Orco Agonist EC50 (relative to VUAA1)” value (Orco (AgORco); Orco alone, agonist, stated in words relative to VUAA1) was “<VUAA1”.
`C=Cc1ccc(NC(=O)CSc2nnc(-c3cccnc3)n2CC)cc1` [VUAA0.5, 2-((4-ethyl-5-(pyridin-3-yl)-4H-1,2,4-triazol-3-yl)thio)-N-(4-vinylphenyl)acetamide] was tested, and the EC50 (AgOrco+AgOR65; [4]) was 110 µM and the “larval behavioral (movement) response” value [1] was “comparable to DMSO controls”.
`CCn1c(SCC(=O)Nc2ccc(C(C)C)cc2)nnc1-c1ccnc(F)c1` was tested, and the Emax (Orco (AgORco)) was 38%, the EC50 (Orco (AgORco); [2]) was 100 µM and the EC50 (AgORco+AgOR48; Orco + 48) was 75.2 µM. For the same molecule, the “Orco + 48 Agonist % value Of VUAA1” value (AgORco+AgOR48; Orco + 48) was 62%.
For `CCc1ccc(NC(=O)CSc2nnc(-c3ccncc3)n2CC)cc1`, the “Orco + 48 Agonist EC50 (given only relative to VUAA1)” value (AgORco+AgOR48; Orco + 48, comparison with VUAA1 in words) was “<VUAA1” and the “Orco + 48 Agonist % value Of VUAA1” value (AgORco+AgOR48; Orco + 48) was “<VUAA1”.
For `CC(C)c1ccc(NC(=O)CSc2nnc(-c3ccncc3)n2C2CC2)cc1` [drawing 634], the EC50 (Orco (AgORco); Orco alone, agonist) was 3.5 µM, the EC50 (AgOrco+AgOR65; Orco + 65, agonist, read-out: Orco + 65 Agonist EC50) was 3.1 µM and the EC50 (AgORco+AgOR48; Orco + 48, agonist) was 1.9 µM. For the same molecule, the “Orco + 48 Agonist % value Of VUAA1” value (AgORco+AgOR48; Orco + 48, agonist) was 122%.
`CCn1c(SCC(=O)Nc2ccc(C(C)C)cc2)nnc1-c1cccnc1` [drawing 381] was tested, and the Emax (Orco (AgORco)) was 102%, the EC50 (Orco (AgORco); [2]) was 12.9 µM and the “Orco 10 + Orco Agonist, compared with VUAA1” value (AgORco+AgOR10; agonist mode) was “>VUAA1”. The EC50 (AgOrco+AgOR65; [3]) was 9.6 µM, the EC50 (AgORco+AgOR48; Orco + 48) was 9.9 µM and the “Orco + 48 Agonist % value Of VUAA1” value (AgORco+AgOR48; Orco + 48) was 109%.
With `CCn1c(SCC(=O)Nc2ccc(C(C)C)cc2)nnc1-c1cc[nH]c1` the EC50 (AgORco+AgOR48; Orco + 48, agonist) was 13.7 µM and the “Orco + 48 Agonist % value Of VUAA1” value (AgORco+AgOR48; Orco + 48, agonist) was “Poor”.
